This note sets out measurements from ChEMBL document CHEMBL5137025, “Tuberculosis Drug Discovery: Challenges and New Horizons” (J Med Chem, 2022).

In brackets after ≈: the same amount, converted by molar mass.

The term IC50 denotes the midpoint of a concentration-inhibition curve. The CC50 is the concentration giving 50% cytotoxicity. One may read the MIC99 as an inhibitory concentration at the 99% level, which refers to growth in some studies and to a panel of isolates in others. Broadly, the half-life is the time in which the quantity being followed falls by half. One may read the bioavailability as dose-corrected exposure relative to a reference, in per cent.

For data set [1], the target named is Cytochrome P450 3A4 (Homo sapiens, UniProt P08684). Nature of the data set: Inhibition of CYP3A4 in human liver microsome using midazolam as substrate incubated for 10 mins in presence of NADP+ by LC-MS/MS analysis. It is filed as ADME, microsomes. (In general: Microsomes from liver hold many membrane-bound enzymes, among them those of drug oxidation.)
Data set [2] is described as follows: Metabolic stability in human liver microsomes assessed as compound remaining measured after 1 hr in presence of NADP+ by LC-MS/MS analysis. In kind it is ADME, Microsome. Particulars: read-out: Stability.
A short description of data set [3]: Metabolic stability in mouse liver microsomes assessed as compound remaining measured after 1 hr in presence of NADP+ by LC-MS/MS analysis. In kind it is ADME, Microsome. Particulars: read-out: Stability.
The subject of data set [4] is Mycobacterium tuberculosis. In kind it is functional. Particulars: H37Rv, time 6 day.
Data set [5] deals with HepG2. Nature of the data set: Cytotoxicity against human HepG2 cells treated for 48 hrs by resazurin dye based assay. It is filed as functional. (The colour change of resazurin is a common sign of viable cells or microbes.)
Data set [6] concerns Mycobacterium tuberculosis. It is filed as functional, H37Rv. Particulars: dose 100 mg/kg; route po; time 4 weeks.
For data set [7], the system named is Mycobacterium tuberculosis. In kind it is functional. Particulars: H37Rv, 336 h, time 14 day.
A short description of data set [8]: Cytotoxicity against human THP-1 cells assessed as reduction in cell viability treated for 96 hrs by MTT assay. It is filed as toxicity, cell-based. A general note: Tetrazolium assays rely on reduction of a dye to a coloured formazan, in cell work by metabolically active cells.
The nature of data set [9]: Inhibition of Mycobacterium tuberculosis Shikimate dehydrogenase expressed in Escherichia coli BL21 using shikimic acid as substrate incubated for 60 mins in presence of NADP+ by enzymatic assay.
In data set [10] the target is T1, Cytochrome P450 1A2 (Homo sapiens, UniProt P05177).
T1 sequence (P05177 whole entry): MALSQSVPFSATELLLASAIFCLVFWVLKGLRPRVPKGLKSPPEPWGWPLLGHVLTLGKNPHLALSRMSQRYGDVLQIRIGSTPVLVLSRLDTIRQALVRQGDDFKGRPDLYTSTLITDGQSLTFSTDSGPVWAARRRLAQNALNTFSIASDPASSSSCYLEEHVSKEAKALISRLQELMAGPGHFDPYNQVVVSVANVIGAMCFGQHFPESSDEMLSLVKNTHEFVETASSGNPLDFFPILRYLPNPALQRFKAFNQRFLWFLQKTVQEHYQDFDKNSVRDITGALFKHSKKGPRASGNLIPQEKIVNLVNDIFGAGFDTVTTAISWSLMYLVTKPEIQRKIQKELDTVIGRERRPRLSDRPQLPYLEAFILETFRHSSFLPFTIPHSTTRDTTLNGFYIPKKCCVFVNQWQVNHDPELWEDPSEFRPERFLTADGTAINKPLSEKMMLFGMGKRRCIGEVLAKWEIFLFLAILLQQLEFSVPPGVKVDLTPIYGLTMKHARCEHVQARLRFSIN
Put plainly: Inhibition of CYP1A2 in human liver microsome in presence of NADPH measured after 10 mins by LC/MS/MS analysis. It is filed as microsomes.

A short description of data set [11]: Metabolic stability in human liver microsomes assessed as half life in presence of NADPH regenerating system measured for 5 to 60 mins by LC/MS/MS analysis. In kind it is ADME, Microsome. Particulars: time 5-60 min.
Data set [12] concerns HepG2. Put plainly: Cytotoxicity against human HepG2 cells. It is filed as functional.
The test system of data set [13] is Mycobacterium tuberculosis. It is filed as functional, H37Rv. Particulars: dose 50 mg/kg; route po; time 15 day.
For data set [14], the system named is Mycobacterium tuberculosis. Nature of the data set: microbe, parasite or virus in culture. Particulars: H37Rv.
Description: Antibacterial activity against Mycobacterium tuberculosis H37Rv assessed as inhibition of bacterial growth
Data set [15] addresses Cytochrome P450 2C9 (Homo sapiens, UniProt P11712). Nature of the data set: Inhibition of CYP2C9 in human liver microsome in presence of NADPH measured after 10 mins by LC/MS/MS analysis. It is filed as ADME, microsomes.
Data set [16] can be described thus: Metabolic stability in rat liver microsomes assessed as half life in presence of NADPH regenerating system measured for 5 to 60 mins by LC/MS/MS analysis. Particulars: time 5-60 min. It is filed as ADME, Microsome.
Data set [17] has as its target Cytochrome P450 2C19 (Homo sapiens, UniProt P33261). Nature of the data set: Inhibition of CYP2C19 in human liver microsome in presence of NADPH measured after 10 mins by LC/MS/MS analysis. It is filed as ADME, microsomes.
The nature of data set [18]: Metabolic stability in mouse liver microsomes assessed as half life in presence of NADPH regenerating system measured for 5 to 60 mins by LC/MS/MS analysis. In kind it is ADME, Microsome. Particulars: time 5-60 min.
Data set [19] is described as follows: Oral bioavailability in Sprague-Dawley rat at 5 mg/kg measured for 0.083 to 24 hrs by LC-MS/MS analysis. In kind it is ADME, organism-based. Particulars: in vivo, time 0.083-24 hrs.
A short description of data set [20]: Half life in Sprague-Dawley rat at 5 mg/kg, po measured for 0.083 to 24 hrs by LC-MS/MS analysis. In kind it is ADME, organism-based. Particulars: in vivo, time 0.083-24 hrs.
Data set [21] has as its system Mycobacterium tuberculosis. Nature of the data set: Bactericidal activity against Mycobacterium tuberculosis H37Rv in acute Mtb infection BALB/c mouse model assessed as reduction in relative light unit at 100 mg/kg for 6 days. It is filed as functional. Particulars: time 6 day.
Data set [22] deals with A549. Nature of the data set: Cytotoxicity against human A549 cells treated for 72 hrs by MTT assay. It is filed as functional.
Data set [23] can be described thus: Metabolic stability in mouse liver microsome assessed as half life in presence of NADPH measured upto 60 mins by LC-MS/MS analysis. In kind it is ADME. Particulars: liver microsomes.
For data set [24], the system named is Mycobacterium tuberculosis. It is filed as functional. Particulars: H37Rv, time 14-21 day.
Data set [25] has as its system Mycobacterium tuberculosis. Nature of the data set: Antibacterial activity against Mycobacterium tuberculosis Erdman in acute Mtb infection BALB/c mouse model assessed as reduction in log10 CFU in lungs at 100 mg/kg, po qd via gavage for 4 weeks. In kind it is functional.
In data set [26] the test system is Mycobacterium tuberculosis. Put plainly: Antibacterial activity against Mycobacterium tuberculosis in chronic Mtb infection C3HeB/FeJ mouse model assessed as reduction in log10 CFU in lungs at 250 mg/kg, po via gavage for 2 weeks. It is filed as functional.
The subject of data set [27] is Mycobacterium tuberculosis. Put plainly: Antibacterial activity against Mycobacterium tuberculosis in acute Mtb infection C3HeB/FeJ mouse model assessed as reduction in log10 CFU in lungs at 250 mg/kg, po via gavage for 2 weeks. In kind it is functional.
Data set [28] in a line: Metabolic stability in mouse liver microsomes assessed as half life. It is filed as ADME, Microsome.
The nature of data set [29]: Protein binding in mouse plasma. In kind it is ADME, cell-free. Particulars: read-out: PPB (converted).
Data set [30] can be described thus: Kinetic aqueous solubility of the compound. It is filed as physicochemical. Particulars: buffer; read-out: Kinetic_solubility.
The subject of data set [31] is Mycobacterium tuberculosis. Put plainly: Antibacterial activity against Mycobacterium tuberculosis CDC1551 infected in mouse J774 cells assessed as inhibition of bacterial growth at 20 uM incubated for 24 hrs relative to control. In kind it is functional. Also on record: scale not given: the % may be the effect or the level left.
The nature of data set [32]: Cytotoxicity against African green monkey Vero cells treated for 72 hrs by microplate reader method. In kind it is toxicity, cell-based. Particulars: chlorocebus sabaeus.
Data set [33] can be described thus: Half life in BALB/c mouse at 100 mg/kg, po by LC/MS analysis. In kind it is ADME, organism-based. Particulars: in vivo.
The test system of data set [34] is Mycobacterium tuberculosis. Put plainly: Antibacterial activity against Mycobacterium tuberculosis in chronic Mtb infection BALB/c mouse model assessed as reduction in log10 CFU in lungs at 100 mg/kg, po for 4 weeks. It is filed as functional.

Chain of Cytochrome P450 3A4 (P08684 whole entry): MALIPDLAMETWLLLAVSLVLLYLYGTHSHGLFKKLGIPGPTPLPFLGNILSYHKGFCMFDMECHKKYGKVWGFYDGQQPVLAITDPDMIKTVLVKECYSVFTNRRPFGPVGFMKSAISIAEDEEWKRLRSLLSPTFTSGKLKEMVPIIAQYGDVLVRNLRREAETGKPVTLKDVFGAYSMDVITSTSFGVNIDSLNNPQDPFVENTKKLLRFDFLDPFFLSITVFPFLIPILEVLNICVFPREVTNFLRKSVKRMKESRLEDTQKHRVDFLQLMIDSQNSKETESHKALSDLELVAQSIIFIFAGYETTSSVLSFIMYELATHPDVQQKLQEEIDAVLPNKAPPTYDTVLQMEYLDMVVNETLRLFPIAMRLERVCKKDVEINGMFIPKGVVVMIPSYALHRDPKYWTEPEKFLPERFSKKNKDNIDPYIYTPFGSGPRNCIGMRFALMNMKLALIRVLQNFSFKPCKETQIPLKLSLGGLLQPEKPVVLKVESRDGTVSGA
Chain of Cytochrome P450 2C19 (P33261 whole entry): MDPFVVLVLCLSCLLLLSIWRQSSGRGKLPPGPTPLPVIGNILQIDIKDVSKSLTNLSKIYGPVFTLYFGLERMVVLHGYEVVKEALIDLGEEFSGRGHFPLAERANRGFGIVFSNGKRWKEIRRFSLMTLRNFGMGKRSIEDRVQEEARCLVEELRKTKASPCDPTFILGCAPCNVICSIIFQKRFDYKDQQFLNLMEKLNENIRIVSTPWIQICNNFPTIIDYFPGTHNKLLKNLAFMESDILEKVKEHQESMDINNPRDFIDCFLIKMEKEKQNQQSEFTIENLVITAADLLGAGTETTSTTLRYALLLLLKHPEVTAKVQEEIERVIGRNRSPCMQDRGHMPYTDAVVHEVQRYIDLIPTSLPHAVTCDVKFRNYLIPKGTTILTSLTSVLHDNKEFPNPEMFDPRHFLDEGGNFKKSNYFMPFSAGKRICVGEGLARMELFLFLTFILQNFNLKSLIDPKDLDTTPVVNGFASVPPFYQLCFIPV
Chain of Cytochrome P450 2C9 (P11712 whole entry): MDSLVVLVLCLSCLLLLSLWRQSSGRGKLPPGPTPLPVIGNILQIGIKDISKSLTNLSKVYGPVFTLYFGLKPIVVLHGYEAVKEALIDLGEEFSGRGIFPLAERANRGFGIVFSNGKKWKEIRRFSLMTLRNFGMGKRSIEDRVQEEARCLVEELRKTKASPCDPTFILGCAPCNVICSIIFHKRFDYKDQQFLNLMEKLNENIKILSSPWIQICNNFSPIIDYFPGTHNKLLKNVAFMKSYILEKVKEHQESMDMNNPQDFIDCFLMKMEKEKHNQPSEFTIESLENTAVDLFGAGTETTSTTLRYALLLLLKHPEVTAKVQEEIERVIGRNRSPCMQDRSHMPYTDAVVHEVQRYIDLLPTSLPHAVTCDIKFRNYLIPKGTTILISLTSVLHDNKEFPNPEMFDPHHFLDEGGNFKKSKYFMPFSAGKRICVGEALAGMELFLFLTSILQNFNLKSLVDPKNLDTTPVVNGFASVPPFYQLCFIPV

For the compound `CC(C)c1ccc(-c2nc(CN3CCN(c4ccnc5cc(-c6cccnc6)ccc45)CC3)no2)cc1`, the IC50 in data set [1] is above 25 µM. The remaining at 1 h came out at 40% in data set [2] and 1.2% in data set [3]. In addition, the MIC in data set [4] was determined as 1 µM (≈ 0.491 µg/mL). Besides, the CC50 in [5] is above 130 µM. Besides, the Activity in [6] was 0.6 log10CFU.

For the compound `O=[N+]([O-])c1cc2cccnc2c2ncccc12`, in data set [7], the MIC99 came to 0.78 µM (≈ 0.176 µg/mL). The CC50 at 96 h in data set [8] is above 25 µM.

With `COc1ccc(OCc2nn3c(-c4ccc(Br)cc4)nnc3s2)cc1`, the IC50 in data set [9] is 29 µM; in data set [10], 560 nM; in data set [15], 560 nM; in data set [17], 560 nM. For the same compound, the half-life is 1.1 min in [11], 17 min in data set [16], 1.2 min in data set [18] and 66 min in data set [20]. The CC50 in data set [12] amounted to 50 µM. This compound also returned an Activity in data set [13] of 1.7 log10CFU. This compound also yielded an MIC in data set [14] of 4.8 µM (≈ 2 µg/mL). For the same compound, in data set [19], the bioavailability stood at 14%.

On to `CC1(C)CCC(OC(=O)Nc2cc(O)cc(Cc3ccccc3)c2)CC1`, for which the Activity in data set [21] was determined as 1.3 log10RLU. It took 64 µM to reach half-maximal cytotoxicity in data set [22] (CC50). Further, the MIC90 in data set [14] turned out to be 1.8 µM (≈ 0.636 µg/mL). In addition, the half-life in [23] came to 1.8 min.

`O=C1C=CN(c2c(F)cc(N3C[C@H](CNc4ccon4)OC3=O)c(F)c2F)CC1` [CONTEZOLID]: in [24], the MIC was found to be 1.2 µM (≈ 0.49 µg/mL). Also, the Activity in data set [25] is given as 2.3 log10CFU.

Take `CCSc1ncc(CN2CCN(c3nc4ccccc4o3)CC2)cn1`: the Activity was found to be 0.7 log10CFU in [26], 0.9 log10CFU in data set [27] and 54% in data set [31]. In [28], the half-life worked out at 49 min. Moreover, the fraction unbound in [29] was 0.03. Besides, in data set [30], the solubility kinetic stood at 76 µM (≈ 27 µg/mL). Moreover, the CC50 at 72 h in data set [32] was above 141 µM.

`Nc1nc(N)c(N=O)c(OCC2CCCCC2)n1` gave a half-life in data set [33] of 60 min. In addition, in data set [34], the Activity stood at 0.9 log10CFU.
